Laboratory results taken from PubChem BioAssay AID2060605 (Molecular Pharmacology Branch, DTP, NCI, 2025).
“And” between values parts separate entries of the source, which are not always exact repeats. Equal values may be shown once. Each block holds one molecule with its values, some of them ahead of it.

Test system: 947758-054-R-J2-PDC spheroid growth, percent test/control
Assay: Anticancer human tumor 947758-054-R-J2-PDC patient-derived colon adenocarcinoma cell line growth inhibition [CLK]
Details: spheroids with HUVEC and MSC; for viability, T/C: stronger effect = lower value
Procedure, shortened: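 Multi-cell-type spheroids combined patient-derived tumor cells with HUVEC endothelial cells and human mesenchymal stem cells. Paired agents were dosed in half-log steps down from about clinical Cmax, or from 10 microM where Cmax was unknown.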

[1] = curve of first compound, second compound 0.0316 µM
[2] = curve of first compound, second compound 0.1 µM
[3] = curve of first compound, second compound 0.316 µM
[4] = curve of first compound, second compound 1 µM
[5] = curve of first compound, second compound 3.16 µM
[6] = curve of first compound, second compound 10 µM
[7] = second compound 0.0316 µM, first compound 0.0316 µM
[8] = second compound 0.0316 µM, first compound 0.1 µM
[9] = second compound 0.0316 µM, first compound 0.316 µM
[10] = second compound 0.0316 µM, first compound 1 µM
[11] = second compound 0.0316 µM, first compound 3.16 µM
[12] = second compound 0.0316 µM, first compound 10 µM
[13] = second compound 0.1 µM, first compound 0.0316 µM
[14] = second compound 0.1 µM, first compound 0.1 µM
[15] = second compound 0.1 µM, first compound 0.316 µM
[16] = second compound 0.1 µM, first compound 1 µM
[17] = second compound 0.1 µM, first compound 3.16 µM
[18] = second compound 0.1 µM, first compound 10 µM
[19] = second compound 0.316 µM, first compound 0.0316 µM
[20] = second compound 0.316 µM, first compound 0.1 µM
[21] = second compound 0.316 µM, first compound 0.316 µM
[22] = second compound 0.316 µM, first compound 1 µM
[23] = second compound 0.316 µM, first compound 3.16 µM
[24] = second compound 0.316 µM, first compound 10 µM
[25] = second compound 1 µM, first compound 0.0316 µM
[26] = second compound 1 µM, first compound 0.1 µM
[27] = second compound 1 µM, first compound 0.316 µM
[28] = second compound 1 µM, first compound 1 µM
[29] = second compound 1 µM, first compound 3.16 µM
[30] = second compound 1 µM, first compound 10 µM
[31] = second compound 3.16 µM, first compound 0.0316 µM
[32] = second compound 3.16 µM, first compound 0.1 µM
[33] = second compound 3.16 µM, first compound 0.316 µM
[34] = second compound 3.16 µM, first compound 1 µM
[35] = second compound 3.16 µM, first compound 3.16 µM
[36] = second compound 3.16 µM, first compound 10 µM
[37] = second compound 10 µM, first compound 0.0316 µM
[38] = second compound 10 µM, first compound 0.1 µM
[39] = second compound 10 µM, first compound 0.316 µM
[40] = second compound 10 µM, first compound 1 µM
[41] = second compound 10 µM, first compound 3.16 µM
[42] = second compound 10 µM, first compound 10 µM
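Also: spheroids exposed to compounds for one week before readout.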
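For viability, T/C in this document: 100% = DMSO vehicle control wells.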

IC50 [1]: 2890 nM
IC50 [2]: 3200 nM
IC50 [3]: 2440 nM
IC50 [4]: 2300 nM
IC50 [5]: 751 nM
IC50 [6]: 35.2 nM
SMILES: CC1(C)CCC(CN2CCN(c3ccc(C(=O)NS(=O)(=O)c4ccc(NCC5CCOCC5)c([N+](=O)[O-])c4)c(Oc4cnc5[nH]ccc5c4)c3)CC2)=C(c2ccc(Cl)cc2)C1 + CNC(=O)c1ccc(Nc2nc(OC3CCCC3)c3c(-c4ccc5nc(C)oc5c4)c[nH]c3n2)c(OC)c1
viability, T/C [7]: 105%
viability, T/C [8]: 80.1%
viability, T/C [9]: 93.6%
viability, T/C [10]: 94.4%
viability, T/C [11]: 46.3%
viability, T/C [12]: 1.33%
viability, T/C [13]: 104%
viability, T/C [14]: 113%
viability, T/C [15]: 82.1%
viability, T/C [16]: 94%
viability, T/C [17]: 47.8%
viability, T/C [18]: 0.8%
viability, T/C [19]: 105%
viability, T/C [20]: 85.2%
viability, T/C [21]: 70.7%
viability, T/C [22]: 76.8%
viability, T/C [23]: 46.9%
viability, T/C [24]: 1.58%
viability, T/C [25]: 64.8%
viability, T/C [26]: 56.7%
viability, T/C [27]: 55.8%
viability, T/C [28]: 68.5%
viability, T/C [29]: 45.8%
viability, T/C [30]: 0.6%
viability, T/C [31]: 59.1%
viability, T/C [32]: 33.4%
viability, T/C [33]: 63.3%
viability, T/C [34]: 48.4%
viability, T/C [35]: 26.5%
viability, T/C [36]: 2.21%
viability, T/C [37]: 55%
viability, T/C [38]: 42.5%
viability, T/C [39]: 40.2%
viability, T/C [40]: 42.3%
viability, T/C [41]: 16.3%
viability, T/C [42]: 2.68%

IC50 [1]: < 31.6 nM
IC50 [2]: > 10000 nM
IC50 [3]: < 31.6 nM
IC50 [4]: > 10000 nM
IC50 [5]: < 31.6 nM
IC50 [6]: < 31.6 nM
SMILES: CC(=O)O[C@H]1C(=O)[C@@]2(C)[C@H]([C@H](OC(=O)c3ccccc3)[C@]3(O)C[C@H](OC(=O)[C@H](O)[C@@H](NC(=O)c4ccccc4)c4ccccc4)C(C)=C1C3(C)C)[C@]1(OC(C)=O)CO[C@@H]1C[C@@H]2O + CNC(=O)c1ccc(Nc2nc(OC3CCCC3)c3c(-c4ccc5nc(C)oc5c4)c[nH]c3n2)c(OC)c1
viability, T/C [7]: 27.7%
viability, T/C [8]: 34.4%
viability, T/C [9]: 31.7%
viability, T/C [10]: 35.2%
viability, T/C [11]: 40.6%
viability, T/C [12]: 47.7%
viability, T/C [13]: 61.2%
viability, T/C [14]: 59%
viability, T/C [15]: 65%
viability, T/C [16]: 79.8%
viability, T/C [17]: 79.1%
viability, T/C [18]: 90.5%
viability, T/C [19]: 47.7%
viability, T/C [20]: 65.1%
viability, T/C [21]: 74.4%
viability, T/C [22]: 85.6%
viability, T/C [23]: 88.3%
viability, T/C [24]: 87.4%
viability, T/C [25]: 41.1%
viability, T/C [26]: 83.5%
viability, T/C [27]: 59.1%
viability, T/C [28]: 61.9%
viability, T/C [29]: 82.8%
viability, T/C [30]: 57.6%
viability, T/C [31]: 36.9%
viability, T/C [32]: 43.8%
viability, T/C [33]: 70.2%
viability, T/C [34]: 70.8%
viability, T/C [35]: 67.9%
viability, T/C [36]: 56.8%
viability, T/C [37]: 35.2%
viability, T/C [38]: 42.1%
viability, T/C [39]: 56.7%
viability, T/C [40]: 53.9%
viability, T/C [41]: 56.8%
viability, T/C [42]: 61.3%

IC50 (curve of compound): 5180 nM and 3660 nM
SMILES: Nc1ccccc1NC(=O)c1ccc(CNC(=O)OCc2cccnc2)cc1
viability, T/C (compound 0.0316 µM): 102% and 80.7%
viability, T/C (compound 0.1 µM): 105% and 97.2%
viability, T/C (compound 0.316 µM): 115% and 90.4%
viability, T/C (compound 1 µM): 96% and 121%
viability, T/C (compound 3.16 µM): 77.7% and 55.5%
viability, T/C (compound 10 µM): 13.9% and 11.4%

The next lines start with the molecule.

SMILES: CCCS(=O)(=O)Nc1ccc(F)c(C(=O)c2c[nH]c3ncc(-c4ccc(Cl)cc4)cc23)c1F + CN1CCN(c2cc(C(=O)Nc3cc4cc(-c5cnn(C)c5)ccc4cn3)ccn2)CC1
IC50 [1]: > 10000 nM
IC50 [2]: 910 nM
IC50 [3]: < 31.6 nM
IC50 [4]: < 31.6 nM
IC50 [5]: < 31.6 nM
IC50 [6]: < 31.6 nM
viability, T/C [7]: 99.5%
viability, T/C [8]: 99.4%
viability, T/C [9]: 79.7%
viability, T/C [10]: 74.3%
viability, T/C [11]: 79.6%
viability, T/C [12]: 63.8%
viability, T/C [13]: 128%
viability, T/C [14]: 176%
viability, T/C [15]: 101%
viability, T/C [16]: 50.9%
viability, T/C [17]: 50.8%
viability, T/C [18]: 34.5%
viability, T/C [19]: 3.8%
viability, T/C [20]: 4.14%
viability, T/C [21]: 4.9%
viability, T/C [22]: 4.06%
viability, T/C [23]: 4.73%
viability, T/C [24]: 3.59%
viability, T/C [25]: 0.85%
viability, T/C [26]: 1%
viability, T/C [27]: 0.17%
viability, T/C [28]: 0.15%
viability, T/C [29]: 1.2%
viability, T/C [30]: 0.11%
viability, T/C [31]: 0.94%
viability, T/C [32]: 1.18%
viability, T/C [33]: 1.32%
viability, T/C [34]: 0.16%
viability, T/C [35]: 0.84%
viability, T/C [36]: 1.58%
viability, T/C [37]: 1.3%
viability, T/C [38]: 1.75%
viability, T/C [39]: 0.41%
viability, T/C [40]: 0.42%
viability, T/C [41]: 1.25%
viability, T/C [42]: 0.41%

SMILES: Cn1ncnc1[C@H]1c2n[nH]c(=O)c3cc(F)cc(c23)N[C@@H]1c1ccc(F)cc1
viability, T/C (compound 0.000316 µM): 90.1% and 87.9%
viability, T/C (compound 0.001 µM): 103% and 93.8%
viability, T/C (compound 0.00316 µM): 96.8% and 101%
viability, T/C (compound 0.01 µM): 96.7% and 94.4%
viability, T/C (compound 0.0316 µM): 117% and 87.6%
viability, T/C (compound 0.1 µM): 130% and 119%
IC50 (curve of compound): > 100 nM

SMILES: CC(CO)NC(=O)c1cc(-c2ccc(Cl)cc2)nn(-c2cnn(C)c2)c1=O (stereo unspecified) + CN1CCN(c2cc(C(=O)Nc3cc4cc(-c5cnn(C)c5)ccc4cn3)ccn2)CC1
IC50 [1]: > 10000 nM
IC50 [2]: > 10000 nM
IC50 [3]: < 31.6 nM
IC50 [4]: < 31.6 nM
IC50 [5]: < 31.6 nM
IC50 [6]: < 31.6 nM
viability, T/C [7]: 91.8%
viability, T/C [8]: 112%
viability, T/C [9]: 105%
viability, T/C [10]: 110%
viability, T/C [11]: 126%
viability, T/C [12]: 155%
viability, T/C [13]: 184%
viability, T/C [14]: 179%
viability, T/C [15]: 175%
viability, T/C [16]: 199%
viability, T/C [17]: 182%
viability, T/C [18]: 133%
viability, T/C [19]: 5.49%
viability, T/C [20]: 6.26%
viability, T/C [21]: 5.8%
viability, T/C [22]: 5.69%
viability, T/C [23]: 4.92%
viability, T/C [24]: 2.57%
viability, T/C [25]: 0.15%
viability, T/C [26]: 0.19%
viability, T/C [27]: 0.18%
viability, T/C [28]: 0.36%
viability, T/C [29]: 0.15%
viability, T/C [30]: 0.14%
viability, T/C [31]: 0.28%
viability, T/C [32]: 0.97%
viability, T/C [33]: 0.25%
viability, T/C [34]: 0.24%
viability, T/C [35]: 0.25%
viability, T/C [36]: 0.31%
viability, T/C [37]: 0.4%
viability, T/C [38]: 0.42%
viability, T/C [39]: 0.35%
viability, T/C [40]: 0.41%
viability, T/C [41]: 0.42%
viability, T/C [42]: 0.36%

SMILES: CNC(=O)c1ccc(Nc2nc(OC3CCCC3)c3c(-c4ccc5nc(C)oc5c4)c[nH]c3n2)c(OC)c1
viability, T/C (compound 0.0316 µM): 62.2% [middle of 12 runs]
viability, T/C (compound 1 µM): 56.2% [middle of 12 runs]
viability, T/C (compound 3.16 µM): 45.1% [middle of 12 runs]
viability, T/C (compound 10 µM): 36.8% [middle of 12 runs]
